Consider three compounds from patent publication US20180185332A1, “Leukotriene Receptor Antagonists and Their Derivatives for Use as Antibacterial Agents” (University of East London, priority 2013, published 2018).

In brackets after ≈: the same amount, converted by molar mass. Bounds are passed on as bounds.

The term MIC denotes the smallest concentration in the dilution series that meets the test's criterion for growth inhibition.

One data set concerns Bacillus subtilis. The data set can be described thus: Minimum inhibitory concentration (MIC) in broth. Format: cell-based. To be noted: 10^5 cfu/mL, overnight at 37° C., no visible growth. The procedure: (§1) Zafirlukast (Sigma Aldrich, UK) was resuspended in Dimethyl Sulfoxide to a concentration of 16 mM. A minimum inhibitory concentration (MIC) was conducted using various bacterial broth solutions containing between the 0 and 4 mM zafirlukast. 10^5 cfu/mL of test organism was added to each tube before incubation overnight at 37° C. The MIC was taken to be the concentration at which no visible growth was observed. In addition, zone inhibition studies were carried out using standard techniques.
(§2) The bacterial species tested included Staphylococcus aureus, methicillin resistant Staphylococcus aureus, Enterococcus faecalis, Bacillus subtilis, Streptococcus pneumoniae, and Clostridium difficile.
(§3) MIC is well known to the skilled person and is defined as the lowest concentration of agent which prevents visible growth of the bacterial strain under investigation.

Another data set relates to Staphylococcus aureus. Briefly: Minimum inhibitory concentration (MIC) in broth. To be noted: 10^5 cfu/mL, overnight at 37° C., no visible growth. The data set is classed as cell-based. The procedure:
as §1, §2, §3

The test system of another data set is MRSA. Briefly: Minimum inhibitory concentration (MIC) in broth. Format: cell-based, methicillin resistant Staphylococcus aureus. To be noted: Staphylococcus aureus, 10^5 cfu/mL, overnight at 37° C., no visible growth. Here is the method:
as §1, §2, §3

The test system of a further data set is B. subtilis. The data set can be described thus: Bactericidal activity, viable counts (percentage survival). Format: cell-based. To be noted: 3 hrs at 37° C., FIG. 2. Here is the method: (§4) 10^5 cfu/mL of bacterial culture was incubated in the presence of various concentrations of zafirlukast for a period of 3 hrs at 37° C. At the end of this incubation, viable counts were taken and results recoded as percentage survival (as compared to the drug free control).

In the next data set the test system is S. aureus. The data set is described as above. Format: cell-based. To be noted: 3 hrs at 37° C., FIG. 2. Here is the method:
as §4

A further data set relates to E. coli. The note with it: Pinault et al 2013; cited from earlier work.
The subject of a further data set is Mycobacterium smegmatis. To be noted: Pinault et al 2013; cited from earlier work.
Data set [1] relates to Mycobacterium tuberculosis. To be noted: Pinault et al 2013; cited from earlier work.
The next data set has as its target Lsr2 (Mycobacterium tuberculosis, UniProt P9WIP7). The note with it: Pinault et al 2013; cited from earlier work.
For data set [2] the following is noted: in vivo, po; cited from earlier work.

Take `COc1cc(C(=O)NS(=O)(=O)c2ccccc2C)ccc1Cc1cn(C)c2ccc(NC(=O)OC3CCCC3)cc12` [Zafirlukast, [3-[2-Methoxy-4-(toluene-2-sulfonylaminocarbonyl)benzyl]-I-methyl-IH-indol-5-yl]carbamic acid cyclopentyl ester]: the MIC against Bacillus subtilis worked out at 6 µM (≈ 3.45 µg/mL); in the data set with Staphylococcus aureus, 30 µM (≈ 17.3 µg/mL); against MRSA it was 6 µM (≈ 3.45 µg/mL). The bactericidal activity entry with B. subtilis and in the data set with S. aureus was “bactericidal activity” in each case. For the same compound, the “effect on the growth of E. coli” value in the data set on E. coli was “no effect”. In the data set with Mycobacterium smegmatis, the “bactericidal activity against M. smegmatis” value is on record as “exhibits bactericidal activity”. In addition, in the data set on Mycobacterium smegmatis, the “growth of Mycobacterium smegmatis” value is “inhibits the growth”. Besides, the “growth of Mycobacterium tuberculosis” value in data set [1] is on record as “inhibits the growth”. Further, the “complexation of Lsr2 with DNA” value on Lsr2 is on record as “inhibits the complexation”. Further, the plasma half-life result in data set [2] is “approximately 10 hours”.
For `O=C(O)c1cn(C2CC2)c2cc(N3CCNCC3)c(F)cc2c1=O` [Ciprofloxacin], the figures for the MIC in the data set on Bacillus subtilis, with Staphylococcus aureus and in the data set on MRSA were over 12 µM, 3 µM (≈ 0.994 µg/mL) and 40 µM (≈ 13.3 µg/mL), respectively.
The like results for `CO/N=C(\C(=O)N[C@@H]1C(=O)N2C(C(=O)O)=C(CSc3nc(=O)c(=O)[nH]n3C)CS[C@H]12)c1csc(N)n1` [Ceftriaxone] were, in that order, over 29 µM, 2 µM (≈ 1.11 µg/mL) and 22 µM (≈ 12.2 µg/mL).
